Source: patent publication US8575091B1, “Amylin analogues and pharmaceutical compositions thereof” (Novo Nordisk A/S, priority 2012, dated 2013)
Read-outs that look alike come from different tables or passages of the source. Numbered stars: 1 amine (or outer) side, 2 acyl side, 3 side chain; on linkers, the order of the positions; unused ones are H or OH. Bridge positions count the residues as written; N and C are the ends. Side chains are listed from the residue outwards. Peptide text beside a SMILES is read from it. * marks the point of attachment. C20 diacid = O=C(O)CCCCCCCCCCCCCCCCCCC(=O)*; γGlu = O=C(O)[C@H](CCC(=O)[*:2])N[*:1]

Tests used:
[1] = biological target: T1, human amylin receptor (amylin 3(a) receptor: human calcitonin receptor + RAMP-3) (Homo sapiens, UniProt O60896+P30988); assay: Assay (II)a functional assay, human amylin receptor (CRE luciferase, BHK cells); type: cell-based; conditions: for EC50: read-out: hAmylin-R funct. EC50
T1 construct: expressed in transfected cells
T1 sequence (P30988 25-474): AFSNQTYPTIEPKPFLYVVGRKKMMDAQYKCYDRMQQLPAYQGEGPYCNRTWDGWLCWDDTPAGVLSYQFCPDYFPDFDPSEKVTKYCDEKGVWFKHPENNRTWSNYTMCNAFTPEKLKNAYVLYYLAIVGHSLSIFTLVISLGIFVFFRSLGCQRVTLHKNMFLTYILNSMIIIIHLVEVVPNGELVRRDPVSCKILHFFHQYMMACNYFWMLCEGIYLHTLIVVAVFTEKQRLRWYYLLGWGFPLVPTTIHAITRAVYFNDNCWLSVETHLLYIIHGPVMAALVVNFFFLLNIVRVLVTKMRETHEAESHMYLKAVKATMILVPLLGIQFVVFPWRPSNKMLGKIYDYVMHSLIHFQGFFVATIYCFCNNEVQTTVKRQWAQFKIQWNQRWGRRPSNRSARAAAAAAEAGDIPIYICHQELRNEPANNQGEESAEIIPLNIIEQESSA
T1 sequence (O60896 24-148 partner): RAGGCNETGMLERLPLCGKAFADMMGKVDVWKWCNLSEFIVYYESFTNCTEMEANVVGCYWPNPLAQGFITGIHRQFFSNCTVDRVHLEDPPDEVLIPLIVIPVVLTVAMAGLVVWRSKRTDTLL

[2] = biological target: T2, human calcitonin receptor (Homo sapiens, UniProt P30988); assay: Assay (II)a functional assay, human calcitonin receptor (CRE luciferase, BHK cells);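 also: luminescence from a CRE-driven luciferase reporter, read by single photon counting after cells were exposed to test samples for 3 h at 37 °C under 5% CO2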; type: cell-based; conditions: read-out: hCTR funct. EC50
T2 construct: expressed in transfected cells
T2 sequence (P30988 25-474): T1 sequence (P30988 25-474)

human amylin receptor = biological target: T3, human amylin receptor (Homo sapiens, UniProt O60896+P30988); assay: Assay (V) binding to the human amylin receptor (SPA, 125I-rat amylin); conditions: for IC50: human amylin receptor membranes, SPA, read-out: hAmylin-R bind IC50
T3 construct: expressed in transfected cells
T3 sequence (P30988 25-474): T1 sequence (P30988 25-474)
T3 sequence (O60896 24-148 partner): T1 sequence (O60896 24-148 partner)
Procedure, shortened: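 IC50, taken as receptor affinity, came from one-site binding competition analysis of scintillation proximity counts. Amylin 3(a)/CRE-luc cell membranes (35 ng/μL final) were mixed with SPA beads (0.05 mg/well) in 50 mM Hepes pH 7.4 containing CaCl2, MgCl2, 0.1% OA and 0.02% Tween20.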

rat amylin receptor = biological target: T4, rat amylin receptor (Rattus norvegicus, UniProt P32214+Q9JJ73); assay: Assay (VI) binding to the rat amylin receptor; conditions: rCTR bind IC50 divided by rAmylin-R bind IC50
T4 construct: expressed in transfected cells; host or cells: BHK tk'ts 13 (transient, FuGENE 6), membranes
T4 sequence (P32214 25-479 isoform P32214-2 limits assumed): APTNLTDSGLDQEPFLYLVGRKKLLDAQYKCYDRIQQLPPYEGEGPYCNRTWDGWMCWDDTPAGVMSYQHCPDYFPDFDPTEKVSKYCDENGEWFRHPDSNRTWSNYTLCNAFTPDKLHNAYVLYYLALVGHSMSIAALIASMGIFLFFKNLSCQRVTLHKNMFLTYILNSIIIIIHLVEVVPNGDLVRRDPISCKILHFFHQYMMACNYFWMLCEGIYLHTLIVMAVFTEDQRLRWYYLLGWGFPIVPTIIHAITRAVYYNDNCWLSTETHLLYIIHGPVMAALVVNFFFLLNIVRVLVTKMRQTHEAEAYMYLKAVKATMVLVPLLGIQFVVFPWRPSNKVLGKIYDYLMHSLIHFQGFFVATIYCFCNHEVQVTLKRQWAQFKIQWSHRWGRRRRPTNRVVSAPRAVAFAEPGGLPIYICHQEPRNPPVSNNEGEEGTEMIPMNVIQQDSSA
T4 sequence (Q9JJ73 23-147 partner): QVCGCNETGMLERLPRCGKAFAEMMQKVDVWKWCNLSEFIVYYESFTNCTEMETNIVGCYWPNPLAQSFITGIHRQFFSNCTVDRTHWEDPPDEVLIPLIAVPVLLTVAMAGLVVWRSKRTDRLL
Procedure, shortened: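 Binding as in the human amylin receptor binding assay, but with membranes from BHK tk'ts 13 cells transiently co-transfected with rat calcitonin receptor and rat RAMP 3 […]. Membranes were prepared from cells harvested about 48 hours after transfection.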

[3] = biological target: T2, human calcitonin receptor; assay: Assay (VII) binding to the human calcitonin receptor (SPA, 125I-Calcitonin); conditions: read-out: hCTR bind IC50;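 also: cell membranes coupled to SPA beads, competitive displacement read by scintillation counting, IC50 derived from a one-site competition fit as a measure of receptor affinity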
[4] = Assay (IV) determination of solubility; type: physicochemical; conditions: for Solubility pH 6.5 Concentration (μM): pH 6.5, 18 hours room temperature; for Solubility pH 7.0 Concentration (μM): pH 7.0, 18 hours room temperature; for Solubility pH 7.5 Concentration (μM): pH 7.5, 18 hours room temperature; for Solubility pH 8.0 Concentration (μM): pH 8.0, 18 hours room temperature
Description: Assay (IV)—Determination of Solubility
The polypeptide was dissolved in water at ˜500 nmol/ml and mixed 1:1 with a series of buffers (100 mM glycylglycine pH 3.0, 100 mM glycylglycine pH 4.0, 100 mM glycylglycine pH 5.0, 100 mM bistrispropane pH 6.0, 100 mM bistrispropane pH 6.5, 100 mM bistrispropane pH 7.0, 100 mM bistrispropane pH 7.5, 100 mM bistrispropane pH 8.0). After 18 hours at room temperature the samples were centrifuged and the polypeptide concentration determined by UPLC.

[5] = Table 6, human functional selectivity (hCTR EC50 / hAmylin-R EC50)
[6] = Table 6a, human functional selectivity (hCTR EC50 / hAmylin-R EC50), at least 5
[7] = Table 6j, hCTR funct. EC50 / hAmylin-R funct. EC50
[8] = Table 6k, hCTR funct. EC50 / hAmylin-R funct. EC50

CC[C@H](C)[C@H](NC(=O)[C@H](C)NC(=O)CNC(=O)[C@H](Cc1ccccc1)NC(=O)[C@H](CC(N)=O)NC(=O)[C@@H]1CCCN1C(=O)[C@H](CO)NC(=O)[C@H](CO)NC(=O)[C@H](Cc1c[nH]cn1)NC(=O)[C@H](CCCNC(=N)N)NC(=O)[C@H](CC(C)C)NC(=O)[C@H](Cc1ccccc1)NC(=O)[C@H](CC(N)=O)NC(=O)[C@H](C)NC(=O)[C@H](CC(C)C)NC(=O)[C@H](CCCNC(=N)N)NC(=O)[C@H](CCC(N)=O)NC(=O)[C@@H](NC(=O)[C@H](C)NC(=O)[C@@H]1CSSC[C@H](NC(=O)[C@H](CCCCN)NC(=O)CC[C@H](NC(=O)CCCCCCCCCCCCCCCCCCC(=O)O)C(=O)O)C(=O)N[C@@H](CC(N)=O)C(=O)N[C@@H]([C@@H](C)O)C(=O)N[C@@H](C)C(=O)N[C@@H]([C@@H](C)O)C(=O)N1)[C@@H](C)O)C(=O)N1CCC[C@H]1C(=O)N[C@@H](CO)C(=O)N[C@@H](CO)C(=O)N[C@H](C(=O)N[C@@H](CC(N)=O)C(=O)N[C@H](C(=O)NCC(=O)N[C@@H](CO)C(=O)N[C@@H](CCCCN)C(=O)N[C@H](C(=O)N[C@@H](Cc1ccc(O)cc1)C(N)=O)[C@@H](C)O)C(C)C)[C@@H](C)O [Example 34]
Ratio hCT/hAmylin funct. [1, 5]: 8.4 | Ratio hCT/hAmylin funct. [1, 6]: 8.4 | Ratio hCT/hAmylin funct. [1, 7]: 8.4 | EC50 ([1]; Table 6j, human amylin receptor functional): 0.313 nM | Ratio hCT/hAmylin funct. [1, 8]: 8.4 | EC50 [2]: 2.62 nM | IC50 (human amylin receptor): 1.14 nM | Ratio rCT/rAmylin binding (rat amylin receptor; Table 7b): 52.0 | Ratio rCT/rAmylin binding (rat amylin receptor; Table 7c): 52.0 | Ratio rCT/rAmylin binding (rat amylin receptor): 52.0 | IC50 [3]: 73.4 nM

CC[C@H](C)[C@H](NC(=O)[C@H](C)NC(=O)CNC(=O)[C@H](Cc1ccccc1)NC(=O)[C@H](CC(N)=O)NC(=O)[C@@H]1CCCN1C(=O)[C@H](CO)NC(=O)[C@H](CO)NC(=O)[C@H](Cc1c[nH]cn1)NC(=O)[C@H](CCCNC(=N)N)NC(=O)[C@H](CC(C)C)NC(=O)[C@H](Cc1ccccc1)NC(=O)[C@H](Cc1c[nH]cn1)NC(=O)[C@H](C)NC(=O)[C@H](CC(C)C)NC(=O)[C@H](CCCNC(=N)N)NC(=O)[C@H](CCC(N)=O)NC(=O)[C@@H](NC(=O)[C@H](C)NC(=O)[C@@H]1CSSC[C@H](NC(=O)[C@@H](N)CCCCNC(=O)CC[C@H](NC(=O)CCCCCCCCCCCCCCCCCCC(=O)O)C(=O)O)C(=O)N[C@@H](CC(N)=O)C(=O)N[C@@H]([C@@H](C)O)C(=O)N[C@@H](C)C(=O)N[C@@H]([C@@H](C)O)C(=O)N1)[C@@H](C)O)C(=O)N1CCC[C@H]1C(=O)N[C@@H](CO)C(=O)N[C@@H](CO)C(=O)N[C@H](C(=O)N[C@@H](CC(N)=O)C(=O)N[C@H](C(=O)NCC(=O)N[C@@H](CO)C(=O)N[C@@H](Cc1c[nH]cn1)C(=O)N[C@H](C(=O)N[C@@H](Cc1ccc(O)cc1)C(N)=O)[C@@H](C)O)C(C)C)[C@@H](C)O [Example 66] (H-K([γGlu-C20 diacid])CNTATCATQRLAHFLRHSSPNFGAIPSSTNVGSHTY-NH2; disulfide 2-7; N-terminus assumed)
Solubility pH 6.5 Concentration (μM) [4]: ≧200 μM | Solubility pH 7.0 Concentration (μM) [4]: ≧200 μM | Solubility pH 7.5 Concentration (μM) [4]: 131 μM | Solubility pH 8.0 Concentration (μM) [4]: 52 μM

CC[C@H](C)[C@H](NC(=O)[C@H](C)NC(=O)CNC(=O)[C@H](Cc1ccccc1)NC(=O)[C@H](CC(N)=O)NC(=O)[C@@H]1CCCN1C(=O)[C@H](CO)NC(=O)[C@H](CO)NC(=O)[C@H](Cc1c[nH]cn1)NC(=O)[C@H](CCCNC(=N)N)NC(=O)[C@H](CC(C)C)NC(=O)[C@H](Cc1ccccc1)NC(=O)[C@H](CCC(=O)O)NC(=O)[C@H](C)NC(=O)[C@H](CC(C)C)NC(=O)[C@H](CCCNC(=N)N)NC(=O)[C@H](CCC(N)=O)NC(=O)[C@@H](NC(=O)[C@H](C)NC(=O)[C@@H]1CSSC[C@H](NC(=O)[C@@H](N)CCCCNC(=O)CC[C@H](NC(=O)CCCCCCCCCCCCCCCCCCC(=O)O)C(=O)O)C(=O)N[C@@H](CC(N)=O)C(=O)N[C@@H]([C@@H](C)O)C(=O)N[C@@H](C)C(=O)N[C@@H]([C@@H](C)O)C(=O)N1)[C@@H](C)O)C(=O)N1CCC[C@H]1C(=O)N[C@@H](CO)C(=O)N[C@@H](CO)C(=O)N[C@H](C(=O)N[C@@H](CC(N)=O)C(=O)N[C@H](C(=O)NCC(=O)N1CCC[C@H]1C(=O)N[C@@H](CC(N)=O)C(=O)N[C@H](C(=O)N1CCC[C@H]1C(N)=O)[C@@H](C)O)C(C)C)[C@@H](C)O [Example 114] (H-K([γGlu-C20 diacid])CNTATCATQRLAEFLRHSSPNFGAIPSSTNVGPNTP-NH2; disulfide 2-7)
Ratio hCT/hAmylin funct. [1, 5]: 0.9 | EC50 ([1]; functional assay, human amylin receptor): 0.105 nM | EC50 [2]: 0.09 nM | IC50 (human amylin receptor): 0.214 nM | Ratio hCT/hAmylin binding (human amylin receptor; human binding ratio, included for comparison): 0.5 | Ratio rCT/rAmylin binding (rat amylin receptor): 1.1 | IC50 [3]: 0.117 nM

CC[C@H](C)[C@H](NC(=O)[C@H](C)NC(=O)CNC(=O)[C@H](Cc1ccccc1)NC(=O)[C@H](CC(N)=O)NC(=O)[C@@H]1CCCN1C(=O)[C@H](CO)NC(=O)[C@H](CO)NC(=O)[C@H](Cc1c[nH]cn1)NC(=O)[C@H](CCCNC(=N)N)NC(=O)[C@H](CC(C)C)NC(=O)[C@H](Cc1ccccc1)NC(=O)[C@H](CC(N)=O)NC(=O)[C@H](C)NC(=O)[C@H](CC(C)C)NC(=O)[C@H](CCCNC(=N)N)NC(=O)[C@H](CCC(N)=O)NC(=O)[C@@H](NC(=O)[C@H](C)NC(=O)[C@@H]1CSSC[C@H](NC(=O)[C@@H](N)CCCCNC(=O)CC[C@H](NC(=O)CC[C@H](NC(=O)CCCCCCCCCCCCCCCCCCC(=O)O)C(=O)O)C(=O)O)C(=O)N[C@@H](CC(N)=O)C(=O)N[C@@H]([C@@H](C)O)C(=O)N[C@@H](C)C(=O)N[C@@H]([C@@H](C)O)C(=O)N1)[C@@H](C)O)C(=O)N1CCC[C@H]1C(=O)N[C@@H](CO)C(=O)N[C@@H](CO)C(=O)N[C@H](C(=O)N1CCC[C@H]1C(=O)N[C@H](C(=O)NCC(=O)N1CCC[C@H]1C(=O)N[C@@H](CCCNC(=N)N)C(=O)N[C@H](C(=O)N[C@@H](Cc1ccc(O)cc1)C(N)=O)[C@@H](C)O)C(C)C)[C@@H](C)O [Example 119] (H-K([γGlu-γGlu-C20 diacid])CNTATCATQRLANFLRHSSPNFGAIPSSTPVGPRTY-NH2; disulfide 2-7 (inferred); N-terminus and C-terminus assumed)
Ratio hCT/hAmylin funct. [1, 5]: 26.0 | Ratio hCT/hAmylin funct. [1, 6]: 26.0 | Ratio hCT/hAmylin funct. [1, 7]: 26.0 | Ratio hCT/hAmylin funct. [1, 8]: 26.0 | Solubility pH 6.5 Concentration (μM) [4]: 174 μM | Solubility pH 7.0 Concentration (μM) [4]: 182 μM | Solubility pH 7.5 Concentration (μM) [4]: 112 μM | Solubility pH 8.0 Concentration (μM) [4]: 32 μM
